The text below walks through data of patent US8741897B2, “Glucocorticoid mimetics, methods of making them, pharmaceutical compositions and uses thereof” (Boehringer Ingelheim Pharmaceuticals Inc., priority 2003, dated 2014).

This experiment has as its system glucocorticoid receptor function. Kind of experiment: one or more of the above assays (GR binding and glucocorticoid receptor cell assays: aromatase, IL-6, TAT, MMTV-Luc, IL-8, ICAM-Luc). In kind it is cell-based. Conditions: assay not specified per compound. As for the experimental part: B. Glucocorticoid Receptor Cell Assays
1. Induction of Aromatase in Fibroblasts (Cell Assay for Transactivation)
Dexamethasone, a synthetic ligand to the glucocorticoid receptor (GR), induces expression of aromatase in human foreskin fibroblast cells. The activity of aromatase is measured by the conversion of testosterone to estradiol in culture media.
On the day of the experiment, the media in the wells is replaced with fresh media. Cells are treated with test compounds to final concentrations of 10^−5 M to 10^−8 M, and testosterone to a final concentration of 300 ng/mL. Each well has a total volume of 100 μL. Samples are made in duplicates. Control wells include: (a) wells that receive testosterone only, and (b) wells that receive testosterone plus 2 μM of dexamethasone to provide maximum induction of aromatase. Plates are incubated at 37° C. overnight (15 to 18 hours), and supernatants are harvested at the end of incubation. […] The amount of estradiol is inversely proportional to the ELISA signals in each well. The extent of aromatase induction by test compounds is expressed as a relative percentage to dexamethasone. EC50 values of test compounds are derived by non-linear curve fitting.
2. Inhibition of IL-6 Production in Fibroblasts (Cell Assay for Transrepression)
Human foreskin fibroblast cells produce IL-6 in response to stimulation by proinflammatory cytokine IL-1.
On the next day, media in the wells is replaced with fresh media. Cells are treated with IL-1 (rhIL-1α, R&D Systems Cat. No. 200-LA) to a final concentration of 1 ng/mL, and with test compounds to final concentrations of 10^−5 M to 10^−8 M, in a total volume of 200 μL per well. Samples are done in duplicates. […] Positive control wells receive IL-1 only and represent maximum (or 100%) amount of IL-6 production. Plates are incubated at 37° C. overnight (15 to 18 hours), and supernatants are harvested at the end of incubation. IL-6 levels in the supernatants are determined by the ELISA kits for IL-6 (MedSystems Diagnostics GmbH, Vienna, Austria, Cat. No. BMS213TEN) according to manufacture's instructions. The extent of inhibition of IL-6 by test compounds is expressed in percentage relative to positive controls. IC50 values of test compounds are derived by non-linear curve fitting.
Evaluation of agonist or antagonist activity of compounds binding to the glucocorticoid receptor may be determined by any of the assays.
3. Modulation of Tyrosine Aminotransferase (TAT) Induction in Rat Hepatoma Cells
Testing of compounds for agonist or antagonist activity in induction of tyrosine aminotransferase (TAT) in rat hepatoma cells.
H4-II-E-C3 cells were incubated overnight in 96 well plates (20,000 cells/100 μL/well) in MEM medium containing 10% heat inactivated FBS and 1% nonessential amino acids. On the next day, cells were stimulated with the indicated concentrations of dexamethasone or test compound (dissolved in DMSO, final DMSO concentration 0.2%) for 18 hours. Control cells were treated with 0.2% DMSO. After 18 hours, the cells were lysed in a buffer containing 0.1% Triton X-100 and the TAT activity was measured in a photometric assay using tyrosine and alpha-ketoglutarate as substrates.
For measuring antagonist activity, the hepatoma cells were pre-stimulated by addition of dexamethasone (concentration ranges from 3×10^−9 M to 3×10^−8 M) shortly before the test compound was applied to the cells.
4. Modulation of MMTV-Luc Induction in HeLa Cells
Testing of compounds for agonist or antagonist activity in stimulation of MMTV-(mouse mammary tumor virus) promoter in HeLa cells.
Cells were cultured overnight in DMEM medium without phenol red, supplemented with 3% CCS (charcoal treated calf serum) and then transferred to 96 well plates (15,000 cells/100 μL/well).
In the case of `COc1ccc(-c2ccccc2)cc1C(C)(C)CC(O)(Cc1cc2ccncc2[nH]1)C(F)(F)F` (stereo not shown) [1,1,1-Trifluoro-4-(4-methoxybiphenyl-3-yl)-4-methyl-2-(1H-pyrrolo[2,3-c]pyridin-2-ylmethyl)pentan-2-ol], the “activity as agonists of the glucocorticoid receptor function in one or more of the above assays” value (“activity as agonists” for short) is on record as “potent agonists”. As for `CC(C)(CC(O)(Cn1ccc2c1CCCC2=O)C(F)(F)F)c1cc(F)ccc1O` (stereo not shown), the “activity as agonists” value is “agonists”.

As for `COc1ccc(-c2cccnc2)cc1C(C)(C)CC(O)(Cc1cc2c(C)cncc2[nH]1)C(F)(F)F` (stereo not shown) [1,1,1-Trifluoro-4-(2-methoxy-5-pyridin-3-ylphenyl)-4-methyl-2-(4-methyl-1H-pyrrolo[2,3-c]pyridin-2-ylmethyl)pentan-2-ol], the “activity as agonists” value is “potent agonists”. Regarding `COc1ccc(-c2cccnc2)cc1C(C)(C)CC(O)(Cn1ccc2c1CCCC2=O)C(F)(F)F` (stereo not shown) [1-[2-Hydroxy-4-(2-methoxy-5-pyridin-3-ylphenyl)-4-methyl-2-trifluoromethylpentyl]-1,5,6,7-tetrahydroindol-4-one], the “activity as agonists” value is “agonists”. Regarding `CC(C)(CC(O)(Cc1cc2cc(C#N)ncc2[nH]1)C(F)(F)F)c1cc(Cl)cc2c1OCC2` (stereo not shown) [2-[4-(5-Chloro-2,3-dihydrobenzofuran-7-yl)-2-hydroxy-4-methyl-2-trifluoromethylpentyl]-1H-pyrrolo[2,3-c]pyridine-5-carbonitrile], the “activity as agonists” value is given as “potent agonists”. For the molecule `CC(C)(CC(O)(Cc1cc2cc(-c3ccccc3)nnc2[nH]1)C(F)(F)F)c1ccccc1` (stereo not shown) [1,1,1-Trifluoro-4-methyl-4-phenyl-2-(3-phenyl-7H-pyrrolo[2,3-c]pyridazin-6-ylmethyl)pentan-2-ol], the “activity as agonists” value is “potent agonists”. Turning to `CC(C)(CC(O)(Cn1ccc2ncccc21)C(F)(F)F)c1cc(S(C)(=O)=O)cc2c1OCC2` (stereo not shown) [1,1,1-Trifluoro-4-(5-methanesulfonyl-2,3-dihydrobenzofuran-7-yl)-4-methyl-2-pyrrolo[3,2-b]pyridin-1-ylmethylpentan-2-ol], the “activity as agonists” value was “potent agonists”.

As to `CC(C)(CC(O)(Cc1cc2cnccc2[nH]1)C(F)F)c1cc(Cl)cc2c1OCC2` (stereo not shown) [4-(5-Chloro-2,3-dihydrobenzofuran-7-yl)-1,1-difluoro-4-methyl-2-(1H-pyrrolo[3,2-c]pyridin-2-ylmethyl)pentan-2-ol], the “activity as agonists” value was “agonists”. As for `CC(C)(CC(O)(Cc1cc2cnccc2[nH]1)C(F)(F)F)c1cc(-c2cccnc2)ccc1O` (stereo not shown) [4-Pyridin-3-yl-2-[4,4,4-trifluoro-3-hydroxy-1,1-dimethyl-3-(1H-pyrrolo[3,2-c]pyridin-2-ylmethyl)butyl]phenol], the “activity as agonists” value is recorded as “potent agonists”. In the case of `Cc1cc2[nH]c(CC(O)(CC(C)(C)c3cc(Cl)cc4c3OCC4)C(F)F)cc2cn1` (stereo not shown) [4-(5-Chloro-2,3-dihydrobenzofuran-7-yl)-1,1-difluoro-4-methyl-2-(6-methyl-1H-pyrrolo[3,2-c]pyridin-2-ylmethyl)pentan-2-ol] it was “agonists”. The value for `CC(C)(CC(O)(Cc1cc2cc(Cl)ncc2[nH]1)C(F)(F)F)c1cc(F)ccc1O` (stereo not shown) [2-[3-(5-Chloro-1H-pyrrolo[2,3-c]pyridin-2-ylmethyl)-4,4,4-trifluoro-3-hydroxy-1,1-dimethylbutyl]-4-fluorophenol] was “potent agonists”; that for `CC(C)(CC(O)(Cc1cc2cc(-c3ccccc3)nnc2[nH]1)C(F)(F)F)c1cc(Cl)cc2c1OCC2` (stereo not shown) [4-(5-Chloro-2,3-dihydrobenzofuran-7-yl)-1,1,1-trifluoro-4-methyl-2-(3-phenyl-7H-pyrrolo[2,3-c]pyridazin-6-ylmethyl)pentan-2-ol] was “potent agonists”; that for `COc1ccc(-c2cccc(C#N)c2)cc1C(C)(C)CC(O)(Cc1cc2ccncc2[nH]1)C(F)(F)F` (stereo not shown) [4′-Methoxy-3′-[4,4,4-trifluoro-3-hydroxy-1,1-dimethyl-3-(1H-pyrrolo[2,3-c]pyridin-2-ylmethyl)butyl]biphenyl-3-carbonitrile] was “potent agonists”. As for `Cc1nccc2[nH]c(CC(O)(CC(C)(C)c3cc(-c4ccsc4)ccc3O)C(F)(F)F)cc12` (stereo not shown) [4-Thiophen-3-yl-2-[4,4,4-trifluoro-3-hydroxy-1,1-dimethyl-3-(4-methyl-1H-pyrrolo[3,2-c]pyridin-2-ylmethyl)butyl]phenol], the “activity as agonists” value was “potent agonists”. `CC(C)(CC(O)(Cc1cc2cc(C#N)ccc2[nH]1)C(F)(F)F)c1cc(S(C)(=O)=O)cc2c1OCC2` (stereo not shown) [2-[2-Hydroxy-4-(5-methanesulfonyl-2,3-dihydrobenzofuran-7-yl)-4-methyl-2-trifluoromethylpentyl]-1H-indole-5-carbonitrile]: the “activity as agonists” value is given as “potent agonists”. For `CC(C)(CC(O)(Cc1cc2cc(N3CCOCC3)ncc2[nH]1)C(F)(F)F)c1cc(-c2ccccc2C#N)ccc1O` (stereo not shown) [4′-Hydroxy-3′-[4,4,4-trifluoro-3-hydroxy-1,1-dimethyl-3-(5-morpholin-4-yl-1H-pyrrolo[2,3-c]pyridin-2-ylmethyl)butyl]biphenyl-2-carbonitrile], the “activity as agonists” value is “potent agonists”.

For `COc1ccc(F)cc1C(C)(C)CC(O)(Cc1[nH]c2ccncc2c1Cl)C(F)(F)F` (stereo not shown) [2-(3-Chloro-1H-pyrrolo[3,2-c]pyridin-2-ylmethyl)-1,1,1-trifluoro-4-(5-fluoro-2-methoxyphenyl)-4-methylpentan-2-ol], the “activity as agonists” value was “potent agonists”. As to `CC(C)(CC(O)(Cc1cc2ncncc2[nH]1)C(F)(F)F)c1ccc(F)cc1O` (stereo not shown) [5-Fluoro-2-[4,4,4-trifluoro-3-hydroxy-1,1-dimethyl-3-(5H-pyrrolo[3,2-d]pyrimidin-6-ylmethyl)butyl]phenol], the “activity as agonists” value was “potent agonists”. The value for `CC(C)(CC(O)(Cc1cc2ccncc2[nH]1)C(F)(F)F)c1cccc(CN2CCOCC2)c1` (stereo not shown) [1,1,1-Trifluoro-4-methyl-4-(3-morpholin-4-ylmethylphenyl)-2-(1H-pyrrolo[2,3-c]pyridin-2-ylmethyl)pentan-2-ol] was “potent agonists”; that for `CC(C)(CC(O)(Cc1cc2cc(-c3cncnc3)ccc2[nH]1)C(F)(F)F)c1cc(F)cc2c1OCC2` (stereo not shown) [1,1,1-Trifluoro4-(5-fluoro-2,3-dihydrobenzofuran-7-yl)-4-methyl-2-(5-pyrimidin-5-yl-1H-indol-2-ylmethyl)pentan-2-ol] was “potent agonists”; that for `COc1ccc(F)cc1C(C)(C)CC(O)(Cn1ccc2c1CCCC2=O)C(F)(F)F` (stereo not shown) [1-[4-(5-Fluoro-2-methoxyphenyl)-2-hydroxy-4-methyl-2-trifluoromethylpentyl]-1,5,6,7-tetrahydroindol-4-one] was “agonists”.

Regarding `COc1ccc(Br)cc1C(C)(C)CC(O)(Cc1cc2ccncc2[nH]1)C(F)(F)F` (stereo not shown) [4-(5-Bromo-2-methoxyphenyl)-1,1,1-trifluoro-4-methyl-2-(1H-pyrrolo[2,3-c]pyridin-2-ylmethyl)pentan-2-ol], the “activity as agonists” value is on record as “potent agonists”.
